Four compounds from patent US11248234B2, “Herbicide-resistant hydroxyphenylpyruvate dioxygenases” (BASF SE, priority 2015, dated 2022) can be followed below.

The subject of test [1] is WT (non-transgenic control) Arabidopsis plants. The test is described as follows: Greenhouse spray test, injury evaluation. As to conditions: 14 DAT. Format: in vivo, Arabidopsis thaliana. The method, then: (§1) Non-transgenic control plants were treated in parallel and pictures taken 14 days after treatment.
(§2) For post emergence treatment, the test plants are first grown to a height of 3 to 15 cm, depending on the plant habit, and only then treated with the herbicides. For this purpose, the test plants are either sown directly and grown in the same containers, or they are first grown separately and transplanted into the test containers a few days prior to treatment.
(§3) Additionally, T1 and T2 transgenic Arabidopsis plants can be tested for improved tolerance to HPPD-inhibiting herbicides in greenhouse studies. Herbicide injury scoring is done 2-3 weeks after treatment and is rated on a scale of 0 to 100%, 0% being no injury and 100% being complete death.
(§4) Transgenic T2 Arabidopsis plants were sprayed with a range of doses from 1.56-25 g/ha of different HPPD-inhibiting herbicides and injury evaluations were taken two weeks after treatment (FIG. 4). As depicted in Table 8, control plants were severely injured by all doses of herbicides applied, with at least 58% of leaf material being damaged at the lowest application rate and 100% leaf damage at the second application rate.

The subject of test [2] is transgenic Arabidopsis plants (T2) SoHPPD F363I (short). The test is described as follows: Greenhouse spray test, injury evaluation. Format: in vivo, Arabidopsis thaliana. The settings on record: for Injury: 14 DAT; for average damage: highest application rate, average of events. On the procedure: as §1, §2, §3, §4
Test [3] concerns transgenic Arabidopsis plants (T2) SoHPPD I419V (short). The test is described as follows: Greenhouse spray test, injury evaluation. The class given is in vivo, Arabidopsis thaliana. As to conditions: 14 DAT. On the procedure:
as §1, §2, §3, §4

Test [4] has as its system transgenic Arabidopsis plants (T2) SoHPPD Q317H (short). The test can be described thus: Greenhouse spray test, injury evaluation. Format: in vivo, Arabidopsis thaliana. The settings on record: 14 DAT. The method, then:
as §1, §2, §3, §4

Test [5] addresses T1, Arabidopsis HPPD (Seq ID: 42) (Arabidopsis thaliana, UniProt P93836).
T1 construct: His6; made in house; host or cells: E. coli BL21 (DE3)
T1 sequence (P93836 1-445): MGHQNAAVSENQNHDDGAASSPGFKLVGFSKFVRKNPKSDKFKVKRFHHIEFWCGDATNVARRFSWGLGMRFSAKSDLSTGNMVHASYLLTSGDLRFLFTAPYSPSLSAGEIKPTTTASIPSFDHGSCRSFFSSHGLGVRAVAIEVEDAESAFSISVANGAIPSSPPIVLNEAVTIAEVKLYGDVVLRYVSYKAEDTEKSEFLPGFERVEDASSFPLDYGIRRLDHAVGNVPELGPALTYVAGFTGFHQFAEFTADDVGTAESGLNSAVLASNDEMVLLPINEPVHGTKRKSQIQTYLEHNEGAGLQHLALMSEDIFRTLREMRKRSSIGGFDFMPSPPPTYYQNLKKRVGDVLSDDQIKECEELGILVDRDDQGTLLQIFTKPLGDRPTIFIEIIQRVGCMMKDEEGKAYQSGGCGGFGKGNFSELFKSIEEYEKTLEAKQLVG
The test is described as follows: In vitro HPPD activity assay (homogentisic acid by HPLC). Format: biochemical. The method, then: (§5) HPPD produces homogentisic acid and CO2 from 4-hydroxyphenylpyruvate (4-HPP) and O2. The activity assay for HPPD is based on the analysis of homogentisic acid by reversed phase HPLC.
(§6) The assay mixture can contain 150 mM potassium phosphate buffer pH 7.0, 50 mM L-ascorbic acid, 100 μM Catalase (Sigma-Aldrich), 1 μM FeSO4 and 0.2 units of purified mutated HPPD enzyme in a total volume of 505 μl. 1 unit is defined as the amount of enzyme that is required to produce 1 nmol of HGA per minute at 20° C.
(§7) After a preincubation of 30 min the reaction is started by adding 4-HPP to a final concentration of 0.05 mM. The reaction is allowed to proceed for 45 min at room temperature. The reaction is stopped by the addition of 50 μl of 4.5 M phosphoric acid. The sample is filtered using a […] pore size PVDF filtration device.
(§8) 5 μl of the cleared sample is analyzed on an UPLC HSS T3 column (particle size 1.8 μm, dimensions 2.1×50 mm; Waters) by isocratic elution using 90% 20 mM NaH2PO4 pH 2.2, 10% methanol (v/v).
(§9) HGA is detected electrochemically at 750 mV (mode: DC; polarity: positive) and quantified by integrating peak areas (Empower software; Waters).
Inhibitors are dissolved in DMSO (dimethylsulfoxide) to a concentration of 0.5 mM. From this stock solution serial five-fold dilutions are prepared in DMSO, which are used in the assay. The respective inhibitor solution accounts for 1% of the assay volume. […] Activities are normalized by setting the uninhibited enzyme activity to 100%. IC50 values are calculated using non-linear regression.
Using methods which are described in the above examples or well known in the art, purified, recombinant mutated HPPD enzymes are characterized with respect to their kinetic properties and sensitivity towards HPPD inhibiting herbicides. Apparent michaelis constants (Km) and maximal reaction velocities (Vmax) are calculated by non-linear regression with the software GraphPad Prism 5 (GraphPad Software, La Jolla, USA) using a substrate inhibition model. […] Weighted means (by standard error) of Km and IC50 values are calculated from at least three independent experiments.
(§10) Field performance of the HPPD enzyme, which is used as a herbicide tolerance trait may depend not only on its lack of sensitivity towards HPPD inhibiting herbicides but also on its activity. To assess the potential performance of a herbicide tolerance trait a tolerance index (TI) is calculated using the following formula: […]
(§11) Easy comparison and ranking of each trait is enabled by normalizing tolerance indexes on Arabidopsis wild-type HPPD.

In test [6] the target is Scenedesmus HPPD (Seq ID: 2) (Tetradesmus obliquus, UniProt A0A383WMN4, N195D). The test can be described thus: In vitro HPPD activity assay. Format: biochemical. On the procedure: as §5, §6, §7, §8, §9
(§12) Inhibitors are dissolved in DMSO (dimethylsulfoxide) to a concentration of 0.5 mM. From this stock solution serial five-fold dilutions are prepared in DMSO, which are used in the assay. The respective inhibitor solution accounts for 1% of the assay volume. Thus, final inhibitor concentrations range from 5 μM to 320 pM, respectively. Activities are normalized by setting the uninhibited enzyme activity to 100%. IC50 values are calculated using non-linear regression.
(§13) Using methods which are described in the above examples or well known in the art, purified, recombinant mutated HPPD enzymes are characterized with respect to their kinetic properties and sensitivity towards HPPD inhibiting herbicides. Apparent michaelis constants (Km) and maximal reaction velocities (Vmax) are calculated by non-linear regression with the software GraphPad Prism 5 (GraphPad Software, La Jolla, USA) using a substrate inhibition model. Apparent kcat values are calculated from Vmax assuming 100% purity of the enzyme preparation. Weighted means (by standard error) of Km and IC50 values are calculated from at least three independent experiments. The Cheng-Prusoff equation for competitive inhibition (Cheng, Y. C.; Prusoff, W. H. Biochem Pharmacol 1973, 22, 3099-3108) is used to calculate dissociation constants (Ki).
as §10, §11

Test [7] has as its target Scenedesmus Short HPPD (Seq ID: 4) (Tetradesmus obliquus, UniProt A0A383WMN4, DEL398-433/N195D). The test is described as follows: In vitro HPPD activity assay. Format: biochemical. The method, then:
as §5, §6, §7, §8, §9, §12, §13, §10, §11

[8] abbreviates: apparent michaelis constant, substrate inhibition model, read-out: Km (4-HPP).
Where [9] appears, read: apparent, from Vmax assuming 100% purity.

Scenedesmus Short HPPD (Seq ID: 4), sequence (A0A383WMN4 entry or part of it N195D/DEL398-433): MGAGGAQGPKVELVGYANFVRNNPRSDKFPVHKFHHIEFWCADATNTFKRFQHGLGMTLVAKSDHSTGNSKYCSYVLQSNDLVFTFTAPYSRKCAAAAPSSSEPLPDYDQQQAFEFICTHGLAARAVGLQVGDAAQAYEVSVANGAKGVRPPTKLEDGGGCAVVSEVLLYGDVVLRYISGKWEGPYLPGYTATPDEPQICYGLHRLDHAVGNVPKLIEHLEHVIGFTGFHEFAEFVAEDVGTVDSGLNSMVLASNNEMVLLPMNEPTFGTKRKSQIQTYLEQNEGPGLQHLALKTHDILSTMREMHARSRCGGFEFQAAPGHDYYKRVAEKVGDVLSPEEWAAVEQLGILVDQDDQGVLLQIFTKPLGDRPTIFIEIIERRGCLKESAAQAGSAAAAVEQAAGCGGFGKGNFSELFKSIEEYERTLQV
Scenedesmus HPPD (Seq ID: 2), sequence (A0A383WMN4 entry or part of it N195D): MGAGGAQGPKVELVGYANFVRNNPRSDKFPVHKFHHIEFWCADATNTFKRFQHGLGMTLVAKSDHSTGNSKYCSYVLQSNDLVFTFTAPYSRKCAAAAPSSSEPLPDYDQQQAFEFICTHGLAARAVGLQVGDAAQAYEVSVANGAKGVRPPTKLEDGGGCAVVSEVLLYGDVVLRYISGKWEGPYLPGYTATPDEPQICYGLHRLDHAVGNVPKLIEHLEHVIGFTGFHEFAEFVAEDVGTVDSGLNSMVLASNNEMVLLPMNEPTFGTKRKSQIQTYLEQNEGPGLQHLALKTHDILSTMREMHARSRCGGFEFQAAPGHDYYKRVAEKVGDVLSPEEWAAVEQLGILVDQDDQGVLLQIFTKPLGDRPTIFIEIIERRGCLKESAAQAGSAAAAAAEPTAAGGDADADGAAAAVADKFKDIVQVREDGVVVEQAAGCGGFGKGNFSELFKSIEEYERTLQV

Consider `CSc1c(C(F)(F)F)ccc(C(=O)Nc2nnnn2C)c1Cl` [Inhibitor 11, 2-chloro-3-methylsulfanyl-N-(1-methyltetrazol-5-yl)-4-(trifluoromethyl)benzamide], for which the Injury was determined as 100% in test [1] (1.56 g ai/ha); 100% in test [1] (6.25 g ai/ha); 100% in test [1] (25 g ai/ha); 0% in test [2] (Event B, 1.56 g ai/ha); 0% in test [2] (Event B, 6.25 g ai/ha); 15% in test [2] (Event B, 25 g ai/ha). The Injury is 8% in test [2] (Event C, 1.56 g ai/ha); 0% in test [2] (Event C, 6.25 g ai/ha); 5% in test [2] (Event C, 25 g ai/ha); 58% in test [3] (Event G, 1.56 g ai/ha); 83% in test [3] (Event G, 6.25 g ai/ha); 100% in test [3] (Event G, 25 g ai/ha). For the same compound, the Injury in test [3] (Event H, 1.56 g ai/ha) was determined as 43%; in test [3] (Event H, 6.25 g ai/ha), 100%; in test [3] (Event H, 25 g ai/ha) it was 100%; in test [4] (Event B, 1.56 g ai/ha) it was 40%; in test [4] (Event B, 6.25 g ai/ha), 99%; in test [4] (Event B, 25 g ai/ha), 100%. In addition, the Injury worked out at 15% in test [4] (Event C, 1.56 g ai/ha); 79% in test [4] (Event C, 6.25 g ai/ha); 100% in test [4] (Event C, 25 g ai/ha). The compound also registered an average damage in test [2] of 10%.

The Km is the substrate concentration at which the rate is half of its maximum. As a reminder, the kcat is the number of substrate molecules converted per active site and unit of time at saturation. Consider `O=C(O)C(=O)Cc1ccc(O)cc1` [Inhibitor 4-HPP, 4-hydroxyphenylpyruvate], for which the Michaelis-Menten constant (Km) in test [5] (setting [8]) came out at 13 µM; in test [6] (setting [8]) it was 160 µM; in test [7] (setting [8]) it was 89 µM. The kcat in test [5] (setting [9]) was determined as 12.9 s⁻¹; in test [6] (setting [9]), 6 s⁻¹; in test [7] (setting [9]) it was 17 s⁻¹.

With `CSc1c(Cl)cc(F)c(C(=O)Nc2nnnn2C)c1Cl` [Inhibitor 7, 2,4-dichloro-6-fluoro-3-methylsulfanyl-N-(1-methyltetrazol-5-yl)benzamide], the Injury in test [1] (1.56 g ai/ha) was 88%; in test [1] (6.25 g ai/ha), 100%; in test [1] (25 g ai/ha), 100%; in test [2] (Event B, 1.56 g ai/ha), 0%; in test [2] (Event B, 6.25 g ai/ha), 5%; in test [2] (Event B, 25 g ai/ha), 0%. In addition, the Injury was 0% in test [2] (Event C, 1.56 g ai/ha); 0% in test [2] (Event C, 6.25 g ai/ha); 0% in test [2] (Event C, 25 g ai/ha); 0% in test [3] (Event G, 1.56 g ai/ha); 28% in test [3] (Event G, 6.25 g ai/ha); 40% in test [3] (Event G, 25 g ai/ha). For the same compound, the Injury in test [3] (Event H, 1.56 g ai/ha) is reported as 5%; in test [3] (Event H, 6.25 g ai/ha), 53%; in test [3] (Event H, 25 g ai/ha), 93%; in test [4] (Event B, 1.56 g ai/ha), 0%; in test [4] (Event B, 6.25 g ai/ha) it was 18%; in test [4] (Event B, 25 g ai/ha), 78%. Besides, the Injury was 0% in test [4] (Event C, 1.56 g ai/ha); 8% in test [4] (Event C, 6.25 g ai/ha); 73% in test [4] (Event C, 25 g ai/ha). Further, the average damage entry in test [2] is “no damage”.

A word on the Ki: it is the equilibrium dissociation constant of an inhibitor or competing ligand from its target. For `CN(c1c(Cl)ccc(C2=C(O)c3ncccc3C(C)(C)S2(=O)=O)c1Cl)S(C)(=O)=O` [Inhibitor 3, N-[2,6-dichloro-3-(8-hydroxy-5,5-dimethyl-6,6-dioxo-thiopyrano[4,3-b]pyridin-7-yl)phenyl]-N-methyl-methanesulfonamide], the Ki is 110 nM in test [6] and 580 nM in test [7].
